Reference: patent US20080188503A1, “New Compounds II” (AstraZenaca AB, priority 2006, published 2008)

Each compound was assayed against T1, recombinant human GSK3β (Homo sapiens, UniProt P49841) (assay: GSK3β Scintillation Proximity Assay (ATP competition)). Conditions: recombinant human GSK3β SPA; 1 μM ATP, 1 μM biotinylated peptide substrate; Ki calculated with Km of ATP 20 μM.
T1 construct: purchased Dundee University, UK
Assay type: biochemical
Description: Determination of ATP Competition in Scintillation Proximity GSK3β Assay.
GSK3β Scintillation Proximity Assay.
The competition experiments were carried out in duplicate with 10 different concentrations of the inhibitors in clear-bottom microtiter plates (Wallac, Finland). A biotinylated peptide substrate, Biotin-Ala-Ala-Glu-Glu-Leu-Asp-Ser-Arg-Ala-Gly-Ser(PO3H2)-Pro-Gln-Leu (AstraZeneca, Lund), was added at a final concentration of 1 μM in an assay buffer containing 1 mU recombinant human GSK3β (Dundee University, UK), 12 mM morpholinepropanesulfonic acid (MOPS), pH 7.0, 0.3 mM EDTA, 0.01% β-mercaptoethanol, 0.004% Brij 35 (a […] detergent), 0.5% glycerol and 0.5 μg BSA/25 μl. The reaction was initiated by the addition of 0.04 μCi [γ-^33P]ATP (Amersham, UK) and unlabelled ATP at a final concentration of 1 μM and assay volume of 25 μl. After incubation for 20 minutes at room temperature, each reaction was terminated by the addition of 25 μl stop solution containing 5 mM EDTA, 50 μM ATP, 0.1% Triton X-100 and 0.25 mg streptavidin coated Scintillation Proximity Assay (SPA) beads (Amersham, UK). After 6 hours the radioactivity was determined in a liquid scintillation counter (1450 MicroBeta Trilux, Wallac). The inhibition curves were analysed by non-linear regression using GraphPad Prism, USA. The Km value of ATP for GSK3β, used to calculate the inhibition constants (Ki) of the various compounds, was 20 μM.

T1 sequence (P49841 whole entry): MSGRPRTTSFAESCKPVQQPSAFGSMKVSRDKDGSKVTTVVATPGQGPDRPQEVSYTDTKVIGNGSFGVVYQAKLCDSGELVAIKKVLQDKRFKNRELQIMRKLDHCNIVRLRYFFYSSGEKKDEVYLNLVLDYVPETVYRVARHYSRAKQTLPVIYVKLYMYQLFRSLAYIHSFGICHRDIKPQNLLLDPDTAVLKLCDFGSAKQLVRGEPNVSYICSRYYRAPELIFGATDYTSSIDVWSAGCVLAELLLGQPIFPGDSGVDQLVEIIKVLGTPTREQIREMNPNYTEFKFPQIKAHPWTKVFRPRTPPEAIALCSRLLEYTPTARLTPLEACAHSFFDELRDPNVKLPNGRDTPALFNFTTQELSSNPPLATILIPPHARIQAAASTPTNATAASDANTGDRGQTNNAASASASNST

SMILES	Ki [nM]
Cc1ncc(-c2nc(NC3CCOCC3)ncc2F)n1C1CCOCC1 [Example 34, 5-Fluoro-4-[2-methyl-1-(tetrahydro-2H-pyran-4-yl)-1H-imidazol-5-yl]-N-(tetrahydro-2H-pyran-4-yl)pyrimidin-2-amine]	87
CC(=O)N1CCC(Nc2ncc(F)c(-c3cnc(C)n3C3CCOCC3)n2)CC1 [Example 35, N-(1-Acetylpiperidin-4-yl)-5-fluoro-4-[2-methyl-1-(tetrahydro-2H-pyran-4-yl)-1H-imidazol-5-yl]pyrimidin-2-amine]	120
Cc1ncc(-c2nc(NC3CCCCC3)ncc2F)n1C1CCOCC1 [Example 36, N-Cyclohexyl-5-fluoro-4-[2-methyl-1-(tetrahydro-2H-pyran-4-yl)-1H-imidazol-5-yl]pyrimidin-2-amine]	16
Cc1ncc(-c2nc(NC3CCN(Cc4ccccc4)CC3)ncc2F)n1C1CCOCC1 [Example 37, N-(1-Benzylpiperidin-4-yl)-5-fluoro-4-[2-methyl-1-(tetrahydro-2H-pyran-4-yl)-1H-imidazol-5-yl]pyrimidin-2-amine]	140
Cc1ncc(-c2nc(NC3CCN(C(=O)c4ccccc4)CC3)ncc2F)n1C1CCOCC1 [Example 38, N-(1-Benzoylpiperidin-4-yl)-5-fluoro-4-[2-methyl-1-(tetrahydro-2H-pyran-4-yl)-1H-imidazol-5-yl]pyrimidin-2-amine]	57
Cc1ncc(-c2nc(NC3CCN(C(=O)Cc4ccccc4)CC3)ncc2F)n1C1CCOCC1 [Example 39, 5-Fluoro-4-[2-methyl-1-(tetrahydro-2H-pyran-4-yl)-1H-imidazol-5-yl]-N-[1-(phenylacetyl)piperidin-4-yl]pyrimidin-2-amine]	36
Cc1ncc(-c2nc(NC3CCN(C(=O)OCc4ccccc4)CC3)ncc2F)n1C1CCOCC1 [Example 40, Benzyl 4-({5-fluoro-4-[2-methyl-1-(tetrahydro-2H-pyran-4-yl)-1H-imidazol-5-yl]pyrimidin-2-yl}amino)piperidine-1-carboxylate]	31
Cc1ncc(-c2nc(NC3CCN(S(C)(=O)=O)CC3)ncc2F)n1C1CCOCC1 [Example 41, 5-Fluoro-N-[1-(methylsulfonyl)piperidin-4-yl]-4-[2-methyl-1-(tetrahydro-2H-pyran-4-yl)-1H-imidazol-5-yl]pyrimidin-2-amine]	120
Cc1ncc(-c2nc(NC3CCN(C(=O)C(F)(F)F)CC3)ncc2F)n1C1CCOCC1 [Example 42, 5-Fluoro-4-[2-methyl-1-(tetrahydro-2H-pyran-4-yl)-1H-imidazol-5-yl]-N-[1-(trifluoroacetyl)piperidin-4-yl]pyrimidin-2-amine]	91
Cc1ncc(-c2nc(NC3CCN(S(=O)(=O)c4ccccc4)CC3)ncc2F)n1C1CCOCC1 [Example 43, 5-Fluoro-4-[2-methyl-1-(tetrahydro-2H-pyran-4-yl)-1H-imidazol-5-yl]-N-[1-(phenylsulfonyl)piperidin-4-yl]pyrimidin-2-amine]	53
Cc1ncc(-c2nc(NC3CCN(S(=O)(=O)Cc4ccccc4)CC3)ncc2F)n1C1CCOCC1 [Example 44, N-[1-(Benzylsulfonyl)piperidin-4-yl]-5-fluoro-4-[2-methyl-1-(tetrahydro-2H-pyran-4-yl)-1H-imidazol-5-yl]pyrimidin-2-amine]	80
